Like-named read-outs stand apart in the source and are kept apart here.
Assays:
E. coli GroEL/ES = molecular target: T1, E. coli GroEL/ES (Escherichia coli, UniProt P0A6F5); experiment: GroEL/ES-mediated dRho refolding assay; format: biochemical
T1 construct: made in house; host or cells: GroEL in NEB 5-alpha E. coli; GroES in E. coli BL21 (DE3)
Protocol: Evaluating compounds for inhibition in the GroEL/ES-mediated dRho refolding assay. Reagent preparation: For this assay, five primary reagent stocks were prepared: 1) GroEL/ES-dRho binary complex stock; 2) ATP initiation stock; 3) thiocyanate enzymatic assay stock; 4) formaldehyde quench stock; 5) ferric nitrate reporter stock. Denatured rhodanese (dRho) was prepared by 3-fold dilution of rhodanese (Roche product #R^1756, diluted to 10 mg/mL with H2O) with denaturant buffer (12 M Urea, 50 mM Tris-HCl, pH 7.4, and 10 mM DTT). Rhodanese was completely denatured by incubating at room temperature for >45 min. The binary complex solution was prepared by slowly adding the dRho stock to a stirring stock of concentrated GroEL in modified folding buffer (50 mM Tris-HCl, pH 7.4, 50 mM KCl, 10 mM MgCl2, 5 mM Na2S2O3, and 1 mM DTT). The solution was centrifuged at 16,000×g for 5 minutes, and the supernatant was collected and added to a solution of GroES in modified folding buffer to give final protein concentrations of 100 nM GroEL, 120 nM GroES, and 80 nM dRho. The binary complex stock was prepared immediately prior to use. For the ATP initiation stock, ATP solid was diluted into modified folding buffer to a final concentration of 2.0 mM. The thiocyanate enzymatic assay stock was prepared to contain 70 mM KH2PO4, 80 mM KCN, and 80 mM Na2S2O3 in water. The formaldehyde quench solution contained 30% formaldehyde in water.
Assay Protocol: First, 10 μL aliquots of the GroEL/ES-dRho complex stock were dispensed into clear, flat-bottom 384-well polystyrene plates. […] After incubating for 40 minutes at 37° C. for the refolding cycle, 30 μL of the thiocyanate enzymatic assay stock was added and incubated for 60 min at room temperature for the refolded rhodanese enzymatic reporter reaction. The reporter reaction was quenched by adding 10 μL of the formaldehyde quench stock, and then 40 μL of the ferric nitrate reporter stock was added to quantify the amount of thiocyanate produced during the enzymatic reporter reaction, which is proportional to the amount of dRho refolded by GroEL/ES. After incubating at room temperature for 15 min, the absorbance by Fe(SCN)3 was measured at 460 nm using a Molecular Devices SpectraMax Plus384 microplate reader. A second set of baseline control plates were prepared analogously, but without GroEL/ES-dRho protein binary solution, to correct for possible interference from compound absorbance or turbidity. […] Results presented represent the averages of IC50 values obtained from at least four replicates.
Evaluating compounds for inhibition in the GroEL/ES-mediated dRho refolding assay. All compounds were evaluated for inhibiting E. coli GroEL/ES-mediated refolding of the denatured Rho reporter enzyme as per our previously reported procedure. Results presented represent the averages of IC50 values obtained from at least four replicates.

[1] = test system: Pseudomonas aeruginosa strain NCTC 10332 (ATCC #10145); experiment: bacterial proliferation assay, P. aeruginosa; format: cell-based; settings: read-out: Bacterial Proliferation EC50 P. aeruginosa
Protocol: (§1) All compounds were evaluated for inhibiting the proliferation of E. coli and each of the ESKAPE bacteria. Results presented represent the averages of EC50 values obtained from at least four replicates. Evaluating compounds for inhibition of bacterial cell proliferation.
(§2) Growth Media: E. coli were grown with LB medium and all ESKAPE bacteria were grown in Brain Heart Infusion (BHI) medium (Becton, Dickinson and Company), with all liquid cultures supplemented with 25 mg/L Ca^2+ and 12.5 mg/L Mg^2+ to mimic physiological free concentrations of these cations. A 10 mg/mL Ca^2+ stock solution was prepared by dissolving 1.84 g of CaCl2.2H2O in 50 mL of deionized water, and a 10 mg/mL Mg^2+ stock solution was prepared by dissolving 4.18 g of MgCl2.6H2O in 50 mL deionized water—filter sterilized using 0.2 μm cellulose-acetate filters. 2.5 mL of the sterile 10 mg/mL Ca^2+ stock and 1.25 mL of the sterile 10 mg/mL Mg^2+ stock solutions were added per 1 L of autoclaved LB or BHI media to obtain 25 mg/L Ca^2+ and 12.5 mg/L Mg^2+ ions, respectively.
(§3) General Assay Protocol: Stock bacterial cultures were streaked onto LB or BHI agar plates and grown overnight at 37° C. Fresh aliquots of cation supplemented media were inoculated with single bacterial colonies and the cultures were grown overnight at 37° C. with shaking (240 rpm). The following morning, cultures were diluted 10-fold into fresh media and grown at 37° C. until bacteria had reached mid-log phase growth (OD600˜0.4-0.6). The cultures were then diluted into fresh media to achieve final OD600 readings of 0.017. Aliquots of these diluted cultures (30 μL) were added to clear, flat-bottom 384-well polystyrene plates that were previously stamped with 0.5 μL of test compounds in 20 μL of media (yielding initial OD600=0.01 bacterial cultures). All compounds were tested in dose-response with concentration ranges during the proliferation assays from 100 μM to 46 nM (3-fold dilution series). A second set of baseline control plates were prepared analogously, but without any bacteria added, to correct for possible compound absorbance and/or precipitation. […] Plates were then read at 600 nm using a Molecular Devices SpectraMax Plus384 microplate reader. […] Results presented represent the averages of EC50 values obtained from at least four replicates.
(§4) Evaluating analogs for inhibiting the growth of E. coli and the ESKAPE bacteria. Analogs were initially tested for antibacterial efficacy against representative strains of antibiotic-sensitive E. coli and the ESKAPE bacteria. To determine compound efficacy, bacterial proliferation assays were carried out in liquid media culture supplemented with physiological concentrations of free calcium and magnesium cations. For these assays, bacterial cultures (OD600=0.01) were exposed to test compounds in 8-point, 3-fold dilution series (100 μM to 46 nM concentration range), in 384-well plates. After addition of compounds to cultures, the plates were sealed with Breathe-Easy gas permeable membranes and allowed to grow to mid-log phase (OD600˜0.4-0.6), whereupon final OD600 readings were taken to assess for bacterial growth and inhibition.

[2] = test system: NEB 5-alpha Escherichia coli; experiment: bacterial proliferation assay, E. coli; format: cell-based; settings: for EC50: read-out: Bacterial Proliferation EC50 E. coli
Protocol: as §1, §2, §3, §4

[3] = read-out: GroEL/ES-dRho Refolding IC50

T1 sequence (P0A6F5 2-548): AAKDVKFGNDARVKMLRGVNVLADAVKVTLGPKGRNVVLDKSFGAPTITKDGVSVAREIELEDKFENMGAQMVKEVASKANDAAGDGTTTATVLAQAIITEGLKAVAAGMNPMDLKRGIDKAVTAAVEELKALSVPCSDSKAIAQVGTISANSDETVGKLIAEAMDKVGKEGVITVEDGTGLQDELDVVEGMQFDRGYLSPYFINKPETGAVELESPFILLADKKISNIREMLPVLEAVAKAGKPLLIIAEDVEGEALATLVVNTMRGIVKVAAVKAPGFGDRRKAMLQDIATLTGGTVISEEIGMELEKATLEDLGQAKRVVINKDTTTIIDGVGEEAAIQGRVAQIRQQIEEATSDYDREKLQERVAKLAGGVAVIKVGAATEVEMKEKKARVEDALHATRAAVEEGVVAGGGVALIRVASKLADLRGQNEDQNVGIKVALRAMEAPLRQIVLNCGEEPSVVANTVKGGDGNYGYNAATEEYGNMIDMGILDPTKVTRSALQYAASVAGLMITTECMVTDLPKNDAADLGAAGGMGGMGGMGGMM

## O=C(N/N=C/c1ccc([N+](=O)[O-])o1)c1ccc(NS(=O)(=O)c2ccc(Br)cc2)cc1 [Compound 27, 4-bromo-N-(4-(2-((5-nitrofuran-2-yl)methylene)hydrazine-1-carbonyl)phenyl)benzenesulfonamide]
E. coli GroEL/ES
  IC50: 59 µM
[1]
  EC50: > 100 µM
[2]; Escherichia coli
  EC50: > 100 µM

## O=C(N/N=C/c1ccc([N+](=O)[O-])o1)c1ccccc1 [Compound 18, N′-((5-nitrofuran-2-yl)methylene)benzohydrazide]
E. coli GroEL/ES
  IC50: 100 µM
[1]
  EC50: > 100 µM
[2]; Escherichia coli
  EC50: 2.1 µM

## CCN(CC)S(=O)(=O)c1cccc(C(=O)N/N=C/c2ccc([N+](=O)[O-])o2)c1 [Compound 25, N,N-diethyl-3-(2-((5-nitrofuran-2-yl)methylene)hydrazine-1-carbonyl)benzenesulfonamide]
E. coli GroEL/ES
  IC50: 100 µM
[1]
  EC50: > 100 µM
[2]; Escherichia coli
  EC50: > 100 µM

## CCOc1ccc(S(=O)(=O)Nc2ccc(C(=O)N/N=C/c3ccc(O)c4ncccc34)cc2)cc1 [Compound 15, 4-ethoxy-N-(4-(2-((8-hydroxyquinolin-5-yl)methylene)hydrazine-1-carbonyl)phenyl)benzenesulfonamide]
E. coli GroEL/ES
  IC50: 1.4 µM
[1]
  EC50: > 100 µM
[2]; Escherichia coli
  EC50: > 100 µM

## CCOc1ccc(S(=O)(=O)Nc2ccc(C(=O)N/N=C/c3ccc([N+](=O)[O-])o3)cc2)cc1 [Compound 28, 4-ethoxy-N-(4-(2-((5-nitrofuran-2-yl)methylene)hydrazine-1-carbonyl)phenyl)benzenesulfonamide]
E. coli GroEL/ES
  IC50: 66 µM
[1]
  EC50: > 100 µM
[2]; Escherichia coli
  EC50: > 100 µM

## COc1ccc(C(=O)N/N=C/c2ccc(O)c3ncccc23)cc1 [Compound 1, N′-((8-hydroxyquinolin-5-yl)methylene)-4-methoxybenzohydrazide]
[2]; Escherichia coli
  EC50: > 100 µM

## O=Cc1ccc([N+](=O)[O-])o1 [Compound 41, reference compound]
E. coli GroEL/ES
  IC50: 31 µM
[1]
  EC50: > 100 µM
[2]; Escherichia coli
  EC50: 9.5 µM

## O=C(N/N=C/c1ccc(O)cc1)c1ccccc1 [Compound 36, N′-(4-hydroxybenzylidene)benzohydrazide]
E. coli GroEL/ES
  IC50: > 250 µM
[1]
  EC50: > 100 µM
[2]; Escherichia coli
  EC50: > 100 µM

## O=C(N/N=C/c1ccc(O)c2ncccc12)c1cccc2ccccc12 [Compound 9, N′-((8-hydroxyquinolin-5-yl)methylene)-1-naphthohydrazide]
E. coli GroEL/ES
  IC50: 2.1 µM
[1]
  EC50: > 100 µM
[2]; Escherichia coli
  EC50: > 100 µM

## O=C(N/N=C/c1ccc(O)c2ncccc12)c1ccc(O)cc1 [Compound 7, 4-hydroxy-N′-((8-hydroxyquinolin-5-yl)methylene)benzohydrazide]
E. coli GroEL/ES
  IC50: 9 µM
[1]
  EC50: > 100 µM
[2]; Escherichia coli
  EC50: 46 µM

## O=C(N/N=C/c1ccc([N+](=O)[O-])o1)c1ccc(O)cc1 [Nifuroxazide, reference compound]
E. coli GroEL/ES
  IC50: 133 µM
[1]
  EC50: > 100 µM
[2]
  inhibition of E. coli proliferation in words: potent inhibitors
[2]; Escherichia coli
  EC50: 0.87 µM

## COc1ccc(C(=O)N/N=C/c2ccc([N+](=O)[O-])o2)cc1 [Compound 20, 4-methoxy-N′-((5-nitrofuran-2-yl)methylene)benzohydrazide]
E. coli GroEL/ES
  IC50: 108 µM
[1]
  EC50: > 100 µM
[2]; Escherichia coli
  EC50: 1.9 µM

## O=C(N/N=C/c1ccc([N+](=O)[O-])o1)c1ccccc1Oc1ccccc1 [Compound 23, N′-((5-nitrofuran-2-yl)methylene)-2-phenoxybenzohydrazide]
[1]
  EC50: > 100 µM
[2]; Escherichia coli
  EC50: > 100 µM

## CN(C)c1ccc(C(=O)N/N=C/c2ccc(O)c3ncccc23)cc1 [Compound 8, 4-(dimethylamino)-N′-((8-hydroxyquinolin-5-yl)methylene)benzohydrazide]
E. coli GroEL/ES
  IC50: 7.9 µM
[1]
  EC50: > 100 µM
[2]; Escherichia coli
  EC50: 93 µM

## COc1ccc(C(=O)NN)cc1 [Compound 42, reference compound]
E. coli GroEL/ES
  IC50: > 250 µM
[1]
  EC50: > 100 µM
[2]; Escherichia coli
  EC50: > 100 µM

## O=[N+]([O-])c1ccc(O)c2ncccc12 [Nitroxoline, reference compound]
E. coli GroEL/ES
  IC50: 6.4 µM
[1]
  EC50: 99 µM
[2]; Escherichia coli
  EC50: 4 µM

## O=C(N/N=C/c1ccc(O)c2ncccc12)c1ccc(Cl)s1 [Compound 4, 5-chloro-N′-((8-hydroxyquinolin-5-yl)methylene)thiophene-2-carbohydrazide]
E. coli GroEL/ES
  IC50: 1.4 µM
[1]
  EC50: > 100 µM
[2]; Escherichia coli
  EC50: > 100 µM

## O=C(N/N=C/c1ccc([N+](=O)[O-])o1)c1cccs1 [Compound 16, N′-((5-nitrofuran-2-yl)methylene)thiophene-2-carbohydrazide]
E. coli GroEL/ES; [3]
  IC50: 222 µM
[1]
  EC50: > 100 µM
[2]
  EC50: 0.42 µM

## O=C(N/N=C/c1ccc(O)c2ncccc12)c1ccccc1Oc1ccccc1 [Compound 10, N′-((8-hydroxyquinolin-5-yl)methylene)-2-phenoxybenzohydrazide]
E. coli GroEL/ES
  IC50: 4.5 µM
[1]
  EC50: 81 µM
[2]; Escherichia coli
  EC50: > 100 µM

## O=C(N/N=C/c1ccc([N+](=O)[O-])o1)c1ccc(NS(=O)(=O)c2cccs2)cc1 [Compound 26, N-(4-(2-((5-nitrofuran-2-yl)methylene)hydrazine-1-carbonyl)phenyl)thiophene-2-sulfonamide]
E. coli GroEL/ES
  IC50: 62 µM
[1]
  EC50: > 100 µM
[2]; Escherichia coli
  EC50: 17 µM

## O=C(N/N=C/c1ccc([N+](=O)[O-])o1)c1cccc(Oc2ccccc2)c1 [Compound 24, N′-((5-nitrofuran-2-yl)methylene)-3-phenoxybenzohydrazide]
E. coli GroEL/ES
  IC50: 50 µM
[1]
  EC50: > 100 µM
[2]; Escherichia coli
  EC50: > 100 µM

## O=C(N/N=C/c1ccccc1)c1ccccc1 [Compound 38, N′-benzylidenebenzohydrazide]
E. coli GroEL/ES
  IC50: > 250 µM
[1]
  EC50: > 100 µM
[2]; Escherichia coli
  EC50: > 100 µM

## O=C(N/N=C/c1ccc([N+](=O)[O-])o1)c1ccc(Cl)s1 [Compound 17, 5-chloro-N′-((5-nitrofuran-2-yl)methylene)thiophene-2-carbohydrazide]
E. coli GroEL/ES; [3]
  IC50: 60 µM
[1]
  EC50: > 100 µM
[2]
  inhibition of E. coli proliferation in words: potent inhibitors
  EC50: 0.45 µM
